This is an account of results in EPA's ToxRefDB 2.

Series [1] concerns mouse. The note with it: Subchronic oral toxicity in rodents, b6c3f1, Feed, dose end: 13 week, group: systemic, systemic / in life observation / body weight / body weight gain.
Series [2] deals with rat. The note with it: Subchronic oral toxicity in rodents, fischer, Feed, dose end: 13 week, group: systemic.
Series [3] relates to rat. The note with it: Sub-acute repeat dose toxicity; fischer; Oral; Feed; dose end: 4 week; group: systemic; systemic / in life observation / body weight / body weight gain.
Series [4] concerns mouse. Conditions: Carcinogenicity; b6c3f1; Oral; Feed; dose end: 78 week; group: systemic; systemic / in life observation / body weight / body weight + systemic / pathology microscopic / liver / cytoplasmic alteration + systemic / ….
The test system of series [5] is rat. Conditions: Carcinogenicity, fischer, Oral, Feed, dose end: 59 week, group: systemic.
Series [6] deals with rabbit. The note with it: Prenatal developmental toxicity study, new zealand white, Oral, Gavage/Intubation, dose end: 19 GD.
Series [7] relates to rat. The note with it: Sub-acute repeat dose toxicity; sprague dawley; Oral; Gavage/Intubation; dose end: 1 month; group: systemic; systemic / clinical chemistry / cholesterol / cholesterol + systemic / clinical chemistry / globulins / globulins + systemic / hematology / ….
The test system of series [8] is rabbit. Conditions: Prenatal developmental toxicity study, new zealand white, Oral, Gavage/Intubation, dose end: 19 GD. This is another data set of the same source.
Series [9] deals with rat. Conditions: Prenatal developmental toxicity study; sprague dawley; Oral; Gavage/Intubation; dose end: 17 GD; group: maternal; reproductive / reproductive performance / estrous cycle / corpora lutea + reproductive / reproductive performance / postimplantation loss / ….
Where [10] appears, read: systemic / in life observation / body weight / body weight gain + systemic / pathology microscopic / bone marrow / depletion + systemic / ….
The mark [11] stands for this setting: systemic / in life observation / body weight / body weight gain + systemic / pathology microscopic / bone marrow / hyperplasia + systemic / ….
The mark [12] stands for this setting: systemic / in life observation / body weight / body weight.
The mark [13] stands for this setting: group: developmental, developmental / developmental malformation / bone / domed head + developmental / developmental malformation / bone / fused + developmental….
[14] abbreviates: group: maternal, systemic / in life observation / body weight / body weight gain + systemic / in life observation / clinical signs / defecation + systemic / ….
Setting [15] is: group: developmental, developmental / developmental malformation / bone / domed head + developmental / developmental malformation / brain / hydrocephaly + ….
Setting [16] is: group: maternal, systemic / in life observation / clinical signs / discharge on cageboard + systemic / in life observation / food consumption / food ….

Take `O=C1O[C@H]([C@@H](O)CO)C(O)=C1O` [L-Ascorbic acid]: in the series on mouse [1], the LEL amounted to 7500 mg/kg/day, the LOAEL was 7500 mg/kg/day, the NEL turned out to be 3750 mg/kg/day and the NOAEL was found to be 3750 mg/kg/day. In addition, in the series on rat [2] (setting [10]), the lowest-observed-adverse-effect level (LOAEL) is 5000 mg/kg/day and the NOAEL was found to be 2500 mg/kg/day. For the same compound, in the series with rat [2] (setting [11]), the LEL was 1250 mg/kg/day and the NEL was less than 1250 mg/kg/day.

In the series with rat [3], `CN(C)c1ccc(Cc2ccc(N(C)C)cc2)cc1` [4,4'-Methylenebis(N,N-dimethylaniline)] yielded an LEL of 7.25 mg/kg/day, an LOAEL of 34 mg/kg/day, an NEL of less than 7.25 mg/kg/day and an NOAEL of 15.8 mg/kg/day. For the same compound, in the series on mouse [4], the LEL was 188 mg/kg/day, the LOAEL worked out at 188 mg/kg/day, the NEL was less than 188 mg/kg/day and the NOAEL was less than 188 mg/kg/day. Besides, in the series with rat [5] (setting [12]), the LEL was determined as 18.8 mg/kg/day, the LOAEL was found to be 37.5 mg/kg/day and the NEL is less than 18.8 mg/kg/day. Moreover, the NOAEL in the series with rat [5] (systemic / in life observation / body weight / body weight + systemic / pathology microscopic / thyroid gland / adenoma + systemic / …) stood at 18.8 mg/kg/day.

`CC(=O)NC1(c2cccc(F)c2)CCN(CC[C@@]2(c3ccc(Cl)c(Cl)c3)CN(c3ccccc3)C(=O)CO2)CC1.O=C(O)CCC(=O)O`: the LEL with rabbit [6] (setting [13]) was determined as 1000 mg/kg/day; in the series on rabbit [6] (setting [14]), 1000 mg/kg/day; with rat [7], 200 mg/kg/day; in the series with rabbit [8] (setting [15]), 1000 mg/kg/day; with rabbit [8] (setting [16]), 1000 mg/kg/day; in the series with rat [9], 500 mg/kg/day. The LOAEL was 1000 mg/kg/day in the series with rabbit [6] (setting [13]); 1000 mg/kg/day in the series on rabbit [6] (setting [14]); 200 mg/kg/day in the series on rat [7]; 1000 mg/kg/day in the series on rabbit [8] (setting [15]); 1000 mg/kg/day in the series with rabbit [8] (setting [16]); more than 1500 mg/kg/day in the series with rat [9]. Also, the NEL with rabbit [6] (setting [13]) is 200 mg/kg/day; in the series with rabbit [6] (setting [14]), 200 mg/kg/day; in the series on rat [7], 30 mg/kg/day; in the series with rabbit [8] (setting [15]), 500 mg/kg/day; with rabbit [8] (setting [16]) it was 500 mg/kg/day; in the series with rat [9], less than 500 mg/kg/day. Moreover, the NOAEL in the series on rabbit [6] (setting [13]) is 200 mg/kg/day; in the series on rabbit [6] (setting [14]), 200 mg/kg/day; in the series with rat [7] it was 30 mg/kg/day; in the series with rabbit [8] (setting [15]), 500 mg/kg/day; with rabbit [8] (setting [16]), 500 mg/kg/day; in the series on rat [9], not below 1500 mg/kg/day.

For orientation: LOAEL means the lowest tested level that showed an adverse finding. Usually NOAEL stands for the highest tested level that showed no adverse finding.
